Entries after “also recorded” stand apart in the source; their conditions may differ.
What was measured:
[1] = test system: CD3/CD28-stimulated human T lymphocytes; test: In vitro T-cell activation assay (interleukin-2 secretion, ELISA); assay type: cell-based; details: human T-cells activated with CD3/CD28 antibodies, 0.1 and 1.0 nM compound, 16 to 20 hr; for in vitro immunosuppressive activity (interleukin-2 secreted from activated T-cells) as compared with the control group: control = activated cells without compound
Protocol: After removal of cell debris by routine centrifugation, the supernatant was subjected to ELISA (R&D Systems) to quantify the level of interleukin-2 secreted from activated T-cells. The level of interleukin-2 obtained from T cells activated with CD3/CD28 without further treatment with the above compounds was used as a control (FIG. 7).
(§1) For statistical comparisons of group differences, especially for both the T cell activation and neurite outgrowth assays, quantitative data were analyzed by one-way analysis of variance (ANOVA) followed by Fisher's t-test according to the statistical program SigmaStat® (Jandel Scientific; version 3.1).

[2] = test system: human neuroblastoma SH-SY5Y cells; test: In vitro neurite outgrowth assay using human neuroblastoma cells; assay type: cell-based; details: for neurite processes compared with cells treated with NGF alone (micrographs, FIG. 8) / neurite outgrowth activity: SH-SY5Y; for neurite processes compared with cells treated with NGF alone (micrographs, FIG. 8): NGF plus 1 nM compound, after 96 h of cultivation; for neurite outgrowth activity: NGF
Protocol: The relative nerve regeneration activities of the mutasynthetic analogues, 36-methyl-FK506 and 36-fluoro-FK520, compared with authentic K506 and FK520, were determined using human neuroblastoma cells. […] The cells (n=90) were randomly photographed after 96 hr of cultivation, then the number of cells with outgrowth was counted. The neurite lengths were measured on photographic prints. Duplicate wells were run in all experiments, and the entire experiment was replicated three times. Neurite length estimated from samples treated with NGF alone was used as a control (FIGS. 7 and 8).
as §1

SMILES	in vitro immunosuppressive activity (interleukin-2 secreted from activated T-cells) as compared with the control group [1]	neurite processes compared with cells treated with NGF alone (micrographs, FIG. 8) [2]	neurite outgrowth activity ([2]; 1 nM compound)	in vitro immunosuppressive activity (interleukin-2 secretion) against FK506 and FK520 [1]	greater effect on neurite outgrowth compared with FK506 ([2]; SH-SY5Y treated with nerve growth factor (10 ng/ml), 1 nM compound, 96 hr) [%]
CO[C@H]1C[C@@H](C)C/C(C)=C/[C@@H](CCF)C(=O)C[C@H](O)[C@@H](C)[C@@H](/C(C)=C/[C@@H]2CC[C@@H](O)[C@H](OC)C2)OC(=O)[C@@H]2CCCCN2C(=O)C(=O)[C@]2(O)O[C@H]1[C@@H](OC)C[C@H]2C [36-fluoro-FK520]	have the immunosuppressive activity	longer	strong neurite outgrowth activity		
C=C(C)C[C@@H]1/C=C(\C)C[C@H](C)C[C@H](OC)[C@H]2O[C@@](O)(C(=O)C(=O)N3CCCC[C@H]3C(=O)O[C@H](/C(C)=C/[C@@H]3CC[C@@H](O)[C@H](OC)C3)[C@H](C)[C@@H](O)CC1=O)[C@H](C)C[C@@H]2OC [36-methyl-FK506]	significant immunosuppressive activity; also recorded: have the immunosuppressive activity	longer	strong neurite outgrowth activity	not improved	~20
C=CC[C@@H]1/C=C(\C)C[C@H](C)C[C@H](OC)[C@H]2O[C@@](O)(C(=O)C(=O)N3CCCC[C@H]3C(=O)O[C@H](/C(C)=C/[C@@H]3CC[C@@H](O)[C@H](OC)C3)[C@H](C)[C@@H](O)CC1=O)[C@H](C)C[C@@H]2OC [FK506, tacrolimus, reference compound]		longer			
CC[C@@H]1/C=C(\C)C[C@H](C)C[C@H](OC)[C@H]2O[C@@](O)(C(=O)C(=O)N3CCCC[C@H]3C(=O)O[C@H](/C(C)=C/[C@@H]3CC[C@@H](O)[C@H](OC)C3)[C@H](C)[C@@H](O)CC1=O)[C@H](C)C[C@@H]2OC [FK520, ascomycin, reference compound]		exception			

Source: patent US9505779B2 (EWHA University—Industry Collaboration Foundation, priority 2010, dated 2016)
